Data: ChEMBL document CHEMBL5042544, “Discovery of a Potent and Selective ATAD2 Bromodomain Inhibitor with Antiproliferative Activity in Breast Cancer Models” (J Med Chem, 2022)

Experiments:
[1] = target: T1, Protein polybromo-1 (Homo sapiens, UniProt Q86U86); experiment: Binding affinity to human PBRM1 bromodomain 5 assessed as dissociation constant by BROMOscan method
[2] = target: SWI/SNF-related matrix-associated actin-dependent regulator of chromatin subfamily A member 2 (Homo sapiens, UniProt P51531); experiment: Binding affinity to human SMARCA2 bromodomain assessed as residual activity at 300 nM by BROMOscan method relative to control
[3] = target: T2, Bromodomain testis-specific protein (Homo sapiens, UniProt Q58F21); experiment: Binding affinity to human BRDT bromodomain 1 assessed as dissociation constant by BROMOscan method
[4] = target: Bromodomain and WD repeat-containing protein 1 (Homo sapiens, UniProt Q9NSI6); experiment: Binding affinity to human WDR9 bromodomain 2 assessed as residual activity at 300 nM by BROMOscan method relative to control
[5] = target: Histone acetyltransferase KAT2B (Homo sapiens, UniProt Q92831); experiment: Binding affinity to human PCAF bromodomain assessed as residual activity at 300 nM by BROMOscan method relative to control
[6] = Binding affinity to human ATAD2A assessed as dissociation constant by BROMOscan method
[7] = target: T3, ATPase family AAA domain-containing protein 2 (Homo sapiens, UniProt Q6PL18); experiment: Displacement of Halo-tagged Histone H3.3 from Nanoluc-ATAD2A BD (962 to 1119 residues) (unknown origin) transfected in human HCT116 cells incubated for 18 hrs by NanoBRET assay; assay type: cell-based, HCT-116
T3 sequence (Q6PL18 whole entry): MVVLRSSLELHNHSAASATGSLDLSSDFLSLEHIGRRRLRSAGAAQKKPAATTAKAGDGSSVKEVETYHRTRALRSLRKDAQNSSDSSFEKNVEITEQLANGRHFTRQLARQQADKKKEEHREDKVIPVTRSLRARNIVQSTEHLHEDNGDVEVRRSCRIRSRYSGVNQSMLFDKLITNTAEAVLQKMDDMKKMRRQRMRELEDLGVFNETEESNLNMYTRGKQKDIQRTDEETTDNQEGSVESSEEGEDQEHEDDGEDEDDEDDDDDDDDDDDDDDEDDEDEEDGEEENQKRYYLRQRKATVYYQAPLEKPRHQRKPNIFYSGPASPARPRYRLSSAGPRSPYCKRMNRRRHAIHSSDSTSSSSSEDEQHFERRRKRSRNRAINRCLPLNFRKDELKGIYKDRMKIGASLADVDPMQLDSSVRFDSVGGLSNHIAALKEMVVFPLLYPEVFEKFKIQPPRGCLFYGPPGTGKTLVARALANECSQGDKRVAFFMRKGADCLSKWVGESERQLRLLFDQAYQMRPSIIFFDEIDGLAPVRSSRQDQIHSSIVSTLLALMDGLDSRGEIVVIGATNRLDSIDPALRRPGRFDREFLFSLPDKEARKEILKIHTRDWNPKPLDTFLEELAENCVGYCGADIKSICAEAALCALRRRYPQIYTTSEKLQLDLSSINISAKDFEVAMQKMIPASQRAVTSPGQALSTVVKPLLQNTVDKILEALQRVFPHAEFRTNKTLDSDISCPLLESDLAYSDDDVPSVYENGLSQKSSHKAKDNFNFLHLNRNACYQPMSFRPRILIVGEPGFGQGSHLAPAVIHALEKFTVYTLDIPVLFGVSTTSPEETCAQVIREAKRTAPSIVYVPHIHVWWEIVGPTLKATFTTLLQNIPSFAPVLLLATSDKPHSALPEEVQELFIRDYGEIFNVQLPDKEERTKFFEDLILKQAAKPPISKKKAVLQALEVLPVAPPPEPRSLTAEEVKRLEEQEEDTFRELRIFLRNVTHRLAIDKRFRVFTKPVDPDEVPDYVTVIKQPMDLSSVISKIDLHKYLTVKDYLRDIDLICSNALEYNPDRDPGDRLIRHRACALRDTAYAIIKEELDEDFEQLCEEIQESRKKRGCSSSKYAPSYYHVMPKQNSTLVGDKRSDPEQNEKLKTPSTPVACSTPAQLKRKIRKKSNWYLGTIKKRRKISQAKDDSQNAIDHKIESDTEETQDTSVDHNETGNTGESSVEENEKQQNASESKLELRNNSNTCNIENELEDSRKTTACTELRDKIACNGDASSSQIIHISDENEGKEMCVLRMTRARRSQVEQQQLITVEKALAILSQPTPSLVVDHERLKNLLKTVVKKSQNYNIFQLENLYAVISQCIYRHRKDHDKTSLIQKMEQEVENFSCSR

[8] = target: CREB-binding protein (Homo sapiens) (UniProt Q92793); experiment: Binding affinity to human CREBBP bromodomain assessed as residual activity at 300 nM by BROMOscan method relative to control
[9] = target: Bromodomain-containing protein 3 (Homo sapiens, UniProt Q15059); experiment: Binding affinity to human BRD3 bromodomain 1 assessed as residual activity at 300 nM by BROMOscan method relative to control
Sequence of Bromodomain-containing protein 3 (Q15059 2-726 limits assumed): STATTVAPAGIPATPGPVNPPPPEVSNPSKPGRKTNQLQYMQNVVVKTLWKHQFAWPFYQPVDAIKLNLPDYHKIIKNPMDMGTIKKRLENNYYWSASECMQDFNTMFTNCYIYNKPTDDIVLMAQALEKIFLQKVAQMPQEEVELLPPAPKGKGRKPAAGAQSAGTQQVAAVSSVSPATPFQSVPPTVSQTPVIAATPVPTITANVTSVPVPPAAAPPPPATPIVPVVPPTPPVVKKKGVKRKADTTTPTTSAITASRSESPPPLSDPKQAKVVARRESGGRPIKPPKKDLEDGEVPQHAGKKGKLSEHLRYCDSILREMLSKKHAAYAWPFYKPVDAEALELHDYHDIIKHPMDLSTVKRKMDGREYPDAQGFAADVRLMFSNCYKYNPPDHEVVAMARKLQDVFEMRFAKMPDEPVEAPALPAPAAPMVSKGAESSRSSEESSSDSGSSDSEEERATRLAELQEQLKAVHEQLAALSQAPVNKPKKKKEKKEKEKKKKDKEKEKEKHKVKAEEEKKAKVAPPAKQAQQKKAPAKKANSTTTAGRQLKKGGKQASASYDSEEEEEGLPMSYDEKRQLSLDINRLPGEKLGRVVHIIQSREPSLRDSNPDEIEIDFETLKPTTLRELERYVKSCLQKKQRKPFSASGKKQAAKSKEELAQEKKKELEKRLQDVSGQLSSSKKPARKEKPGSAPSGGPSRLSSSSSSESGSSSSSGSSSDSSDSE

[10] = target: Bromodomain adjacent to zinc finger domain protein 2A (Homo sapiens) (UniProt Q9UIF9); experiment: Binding affinity to human BAZ2A bromodomain assessed as residual activity at 300 nM by BROMOscan method relative to control
[11] = system: T47D; experiment: Antiproliferative activity against human T-47D cells expressing ATAD2 assessed as inhibition of colony formation at 0.01 to 10 uM measured after 14 to 21 days by AlamarBlue staining based colony formation assay; assay type: functional, cell-based; conditions: dose 0.01-10 µM, time 14-21 day
[12] = target: T4, Bromodomain-containing protein 2 (Homo sapiens, UniProt P25440); experiment: Binding affinity to human BRD2 bromodomain 2 assessed as residual activity at 300 nM by BROMOscan method relative to control
Target sequence in this assay (P25440 whole entry, looked up): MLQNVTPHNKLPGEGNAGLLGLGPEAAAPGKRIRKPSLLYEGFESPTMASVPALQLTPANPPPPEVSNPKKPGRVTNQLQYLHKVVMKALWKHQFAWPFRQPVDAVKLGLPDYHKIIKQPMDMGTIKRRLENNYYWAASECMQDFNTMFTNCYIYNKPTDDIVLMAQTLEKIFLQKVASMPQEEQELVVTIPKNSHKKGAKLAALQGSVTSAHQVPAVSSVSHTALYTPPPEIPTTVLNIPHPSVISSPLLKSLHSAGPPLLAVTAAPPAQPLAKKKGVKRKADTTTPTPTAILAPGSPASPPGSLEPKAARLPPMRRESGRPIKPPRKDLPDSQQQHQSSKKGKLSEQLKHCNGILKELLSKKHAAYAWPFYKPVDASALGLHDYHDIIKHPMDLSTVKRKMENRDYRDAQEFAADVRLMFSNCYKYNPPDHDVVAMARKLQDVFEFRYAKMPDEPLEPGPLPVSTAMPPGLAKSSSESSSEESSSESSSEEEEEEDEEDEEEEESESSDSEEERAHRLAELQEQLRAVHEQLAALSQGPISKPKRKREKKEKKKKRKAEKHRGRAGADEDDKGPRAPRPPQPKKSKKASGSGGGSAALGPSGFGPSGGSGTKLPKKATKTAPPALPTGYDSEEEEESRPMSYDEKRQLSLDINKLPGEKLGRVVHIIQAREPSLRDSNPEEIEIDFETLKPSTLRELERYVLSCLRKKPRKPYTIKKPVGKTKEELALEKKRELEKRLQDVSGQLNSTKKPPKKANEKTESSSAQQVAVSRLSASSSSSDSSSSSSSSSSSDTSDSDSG

[13] = target: SWI/SNF-related matrix-associated actin-dependent regulator of chromatin subfamily A member 4 (Homo sapiens) (UniProt P51532); experiment: Binding affinity to human SMARCA4 bromodomain assessed as residual activity at 300 nM by BROMOscan method relative to control
[14] = target: T4, Bromodomain-containing protein 2; experiment: Binding affinity to human BRD2 bromodomain 2 assessed as dissociation constant by BROMOscan method
Target sequence in this assay (P25440 whole entry): as the sequence (P25440 whole entry, looked up) above

[15] = target: T1, Protein polybromo-1; experiment: Binding affinity to human PBRM1 bromodomain 2 assessed as residual activity at 300 nM by BROMOscan method relative to control
[16] = target: Bromodomain-containing protein 1 (Homo sapiens) (UniProt O95696); experiment: Binding affinity to human BRD1 bromodomain assessed as residual activity at 300 nM by BROMOscan method relative to control
Sequence of Bromodomain-containing protein 1 (Homo sapiens) (O95696 whole entry): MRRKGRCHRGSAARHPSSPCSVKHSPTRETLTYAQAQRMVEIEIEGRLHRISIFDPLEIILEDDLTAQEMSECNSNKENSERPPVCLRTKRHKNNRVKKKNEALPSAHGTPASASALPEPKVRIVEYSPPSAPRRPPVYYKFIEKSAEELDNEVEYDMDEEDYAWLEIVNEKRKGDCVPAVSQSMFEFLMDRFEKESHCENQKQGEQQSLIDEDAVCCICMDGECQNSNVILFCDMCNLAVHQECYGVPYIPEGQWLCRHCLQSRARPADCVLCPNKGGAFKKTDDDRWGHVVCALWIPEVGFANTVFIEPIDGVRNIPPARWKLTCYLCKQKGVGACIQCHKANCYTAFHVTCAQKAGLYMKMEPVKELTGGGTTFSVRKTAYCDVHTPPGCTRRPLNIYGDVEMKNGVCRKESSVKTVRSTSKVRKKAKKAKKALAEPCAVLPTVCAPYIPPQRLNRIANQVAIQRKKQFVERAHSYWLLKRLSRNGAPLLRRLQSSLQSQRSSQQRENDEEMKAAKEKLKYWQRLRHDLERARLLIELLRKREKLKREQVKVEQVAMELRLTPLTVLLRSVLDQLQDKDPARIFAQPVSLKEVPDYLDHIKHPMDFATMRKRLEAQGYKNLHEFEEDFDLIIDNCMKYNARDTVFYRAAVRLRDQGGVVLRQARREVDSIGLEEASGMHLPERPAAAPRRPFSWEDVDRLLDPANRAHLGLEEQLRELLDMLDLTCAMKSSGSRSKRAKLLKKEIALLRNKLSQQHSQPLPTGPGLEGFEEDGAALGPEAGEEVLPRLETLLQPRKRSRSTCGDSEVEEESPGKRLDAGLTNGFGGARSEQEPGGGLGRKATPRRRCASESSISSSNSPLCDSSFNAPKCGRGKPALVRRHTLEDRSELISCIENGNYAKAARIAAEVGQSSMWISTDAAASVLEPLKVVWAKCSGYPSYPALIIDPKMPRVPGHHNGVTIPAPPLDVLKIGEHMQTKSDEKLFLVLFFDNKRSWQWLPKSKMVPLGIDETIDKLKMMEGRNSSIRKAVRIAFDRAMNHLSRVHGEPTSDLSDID

[17] = species: Homo sapiens; experiment: Binding affinity to human ATAD2A assessed as residual activity at 300 nM by BROMOscan method relative to control
[18] = target: T2, Bromodomain testis-specific protein; experiment: Binding affinity to human BRDT bromodomain 2 assessed as residual activity at 300 nM by BROMOscan method relative to control
[19] = target: Nucleosome-remodeling factor subunit BPTF (Homo sapiens, UniProt Q12830); experiment: Binding affinity to human FALZ bromodomain assessed as residual activity at 300 nM by BROMOscan method relative to control

T1 sequence (Q86U86 whole entry): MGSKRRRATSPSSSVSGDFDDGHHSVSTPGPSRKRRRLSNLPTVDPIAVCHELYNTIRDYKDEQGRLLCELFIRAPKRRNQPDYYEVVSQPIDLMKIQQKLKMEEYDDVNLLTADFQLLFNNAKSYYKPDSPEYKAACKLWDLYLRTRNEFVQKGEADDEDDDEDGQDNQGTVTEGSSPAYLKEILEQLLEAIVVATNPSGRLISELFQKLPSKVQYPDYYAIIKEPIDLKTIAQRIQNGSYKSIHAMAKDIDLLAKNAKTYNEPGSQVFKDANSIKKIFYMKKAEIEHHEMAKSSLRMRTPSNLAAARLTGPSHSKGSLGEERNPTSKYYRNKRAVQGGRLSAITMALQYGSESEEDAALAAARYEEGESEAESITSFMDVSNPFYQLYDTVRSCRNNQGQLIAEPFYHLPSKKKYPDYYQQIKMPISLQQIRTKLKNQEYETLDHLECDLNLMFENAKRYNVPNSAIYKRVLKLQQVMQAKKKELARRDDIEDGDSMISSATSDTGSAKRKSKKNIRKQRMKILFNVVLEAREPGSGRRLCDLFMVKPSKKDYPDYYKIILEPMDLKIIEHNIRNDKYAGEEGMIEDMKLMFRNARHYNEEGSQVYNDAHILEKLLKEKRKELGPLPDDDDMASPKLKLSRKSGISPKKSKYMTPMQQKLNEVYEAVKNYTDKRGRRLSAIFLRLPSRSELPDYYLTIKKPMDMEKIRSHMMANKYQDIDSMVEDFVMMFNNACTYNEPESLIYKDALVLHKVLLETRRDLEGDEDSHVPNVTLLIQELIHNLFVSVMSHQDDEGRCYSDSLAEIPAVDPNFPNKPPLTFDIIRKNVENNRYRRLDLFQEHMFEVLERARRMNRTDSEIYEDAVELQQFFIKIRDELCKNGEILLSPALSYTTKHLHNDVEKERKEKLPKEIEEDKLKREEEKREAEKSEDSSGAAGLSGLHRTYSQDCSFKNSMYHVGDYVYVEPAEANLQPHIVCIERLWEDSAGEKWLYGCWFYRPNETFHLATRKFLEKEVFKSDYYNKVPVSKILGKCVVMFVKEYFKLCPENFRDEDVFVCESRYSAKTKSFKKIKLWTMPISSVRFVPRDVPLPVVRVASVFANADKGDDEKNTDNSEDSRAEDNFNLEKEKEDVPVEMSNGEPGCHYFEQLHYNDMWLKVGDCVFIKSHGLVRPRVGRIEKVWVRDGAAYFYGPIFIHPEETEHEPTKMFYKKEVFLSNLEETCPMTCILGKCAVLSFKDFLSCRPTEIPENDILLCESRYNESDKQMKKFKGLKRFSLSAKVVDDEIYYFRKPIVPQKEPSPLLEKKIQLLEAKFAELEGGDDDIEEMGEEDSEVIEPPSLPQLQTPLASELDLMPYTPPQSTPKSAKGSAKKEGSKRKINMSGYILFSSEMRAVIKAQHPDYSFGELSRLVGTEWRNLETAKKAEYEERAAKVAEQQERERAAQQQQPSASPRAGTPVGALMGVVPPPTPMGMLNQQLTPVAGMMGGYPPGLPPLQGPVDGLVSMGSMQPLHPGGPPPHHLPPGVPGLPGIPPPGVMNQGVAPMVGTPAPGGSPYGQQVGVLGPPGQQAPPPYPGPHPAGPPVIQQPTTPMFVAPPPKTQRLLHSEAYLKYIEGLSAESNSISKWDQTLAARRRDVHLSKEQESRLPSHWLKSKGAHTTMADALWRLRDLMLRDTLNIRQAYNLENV

Kd [1]: > 316 nM | Activity [2]: 36% | Kd [3]: 200 nM | Activity [4]: 53% | Activity [5]: 62% | pKd [6]: 8.9 | IC50 [7]: 126 nM | Activity [8]: 61% | Activity [9]: 90% | Activity [10]: 82% | Activity [12]: 31% | Activity [13]: 80% | Kd [14]: 200 nM | Activity [15]: 80% | Activity [16]: 75% | Activity [17]: 0% | Activity [18]: 71% | Activity [19]: 53%
SMILES: Cc1nnc2c(NC3CCN(CC(C)(C)F)CC3)cc(C(=O)N3[C@@H]4c5ccccc5C[C@H]3C(=O)N[C@@H]4C(C)C)nn12
Activity [11]: Dose-Dependent Effect
